We go through 31 molecules from ChEMBL document CHEMBL5154901, “Development of Predictive Classification Models for Whole Cell Antimycobacterial Activity of Benzothiazinones” (J Med Chem, 2022).

Values after ≈ are worked out from the molar mass of the structure shown.

Data set [1] in a line: Cytotoxicity against human HeLa cells assessed as reduction in cell viability incubated for 72 hrs by methylene blue staining based colorimetric assay. The data set is classed as toxicity.
For the next data set, the system named is Mycolicibacterium vaccae. Put plainly: Antimycobacterial activity against Mycobacterium vaccae (JMRC:STI:10670) assessed as reduction in bacterial growth incubated for 42 hrs by serial dilution method. The data set is classed as functional. The settings on record: Mycolicibacterium vaccae, JMRC:STI:10670, read-out: MIC.
The nature of data set [2]: Metabolic stability in human liver microsomes at 20 uM assessed as intrinsic clearance measured up to 90 mins by LC-HRMS analysis. The data set is classed as ADME, Microsome. The settings on record: read-out: CLH. A general note: Liver microsomes are a subcellular fraction often used to study metabolism.
Data set [3] in a line: Metabolic stability in human liver microsomes at 20 uM assessed as half life measured up to 90 mins by LC-HRMS analysis. It counts as ADME, Microsome.

For `CN(C(=O)CN1CCN(c2nc(=O)c3cc(C(F)(F)F)cc([N+](=O)[O-])c3s2)CC1)c1ccccc1`, in data set [1], the CC50 – broadly, the concentration at which the toxic effect on the cells reaches its halfway point – at 72 h was determined as 70.3 µM. Moreover, the MIC (commonly the lowest concentration found to suppress growth) in the data set on Mycolicibacterium vaccae was 0.0061 µM (≈ 0.0031 µg/mL). In data set [2], the microsomal CLint at 20 µM is 15.8 µL/min/mg. For the same molecule, the half-life (usually the time in which the quantity being followed falls by half) at 20 µM in data set [3] was found to be 88.9 min.
As for `O=c1nc(N2CCN(Cc3ccc(OC(F)(F)F)cc3)CC2)sc2c([N+](=O)[O-])cc(C(F)(F)F)cc12`, the microsomal CLint at 20 µM in data set [2] turned out to be 32.1 µL/min/mg. Moreover, the half-life at 20 µM in data set [3] came to 43.6 min.
Regarding `O=c1nc(N2CCN(CC(F)(F)c3ccc(F)c(F)c3)CC2)sc2c([N+](=O)[O-])cc(C(F)(F)F)cc12`, the microsomal CLint at 20 µM in data set [2] was 30.9 µL/min/mg. In addition, the half-life at 20 µM in data set [3] amounted to 45.3 min.
Consider `O=c1nc(N2CCN(C(c3ccccc3)C(F)(F)F)CC2)sc2c([N+](=O)[O-])cc(C(F)(F)F)cc12` (centres undefined), for which the microsomal CLint at 20 µM in data set [2] came to 22.4 µL/min/mg. Besides, the half-life at 20 µM in data set [3] was 88.9 min.
For the molecule `CN(CC1(CO)CCCC1)c1nc(=O)c2cc(C(F)(F)F)cc([N+](=O)[O-])c2s1`, the CC50 at 72 h in data set [1] was greater than 120 µM. In addition, the MIC in the data set with Mycolicibacterium vaccae is 0.0599 µM (≈ 0.025 µg/mL).
With `COc1cc2c(cc1OC)[C@@H](C[C@@H](O)c1ccccc1)N(c1nc(=O)c3cc(C(F)(F)F)cc([N+](=O)[O-])c3s1)CC2`, the CC50 at 72 h in data set [1] was greater than 85 µM. For the same molecule, in the data set on Mycolicibacterium vaccae, the MIC was 0.0425 µM (≈ 0.025 µg/mL).
For `O=c1nc(N2CCn3cc(C(F)(F)F)nc3C2)sc2c([N+](=O)[O-])cc(C(F)(F)F)cc12`, in that order: greater than 107 µM and 0.0838 µM (≈ 0.039 µg/mL).
For `O=C(CN1CCN(c2nc(=O)c3cc(C(F)(F)F)cc([N+](=O)[O-])c3s2)CC1)NCCc1ccccc1`, in that order: 87.8 µM and 0.479 µM (≈ 0.25 µg/mL).
For `N#Cc1cccc(CN2CCN(c3nc(=O)c4cc(C(F)(F)F)cc([N+](=O)[O-])c4s3)CC2)c1`, the microsomal CLint at 20 µM in data set [2] came to 23.2 µL/min/mg. For the same molecule, the half-life at 20 µM in data set [3] came out at 60.3 min.
`Cc1ccc([C@@]2(O)CCN(c3nc(=O)c4cc(C(F)(F)F)cc([N+](=O)[O-])c4s3)C2)cc1`: the CC50 at 72 h in data set [1] was greater than 111 µM. The MIC in the data set on Mycolicibacterium vaccae came out at 0.0554 µM (≈ 0.025 µg/mL).
For `O=c1nc(N2Cc3ccccc3[C@H](CO)C2)sc2c([N+](=O)[O-])cc(C(F)(F)F)cc12`, in that order: 86.4 µM and 0.0286 µM (≈ 0.0125 µg/mL).
As for `COc1ccc2c(c1)CN(c1nc(=O)c3cc(C(F)(F)F)cc([N+](=O)[O-])c3s1)C2`, in data set [1], the CC50 at 72 h is greater than 118 µM. Moreover, the MIC in the data set with Mycolicibacterium vaccae was determined as 0.0591 µM (≈ 0.025 µg/mL).
For `O=c1nc(N2CCN(CC(F)(F)c3ccccc3)CC2)sc2c([N+](=O)[O-])cc(C(F)(F)F)cc12`, in that order: greater than 100 µM and 0.016 µM (≈ 0.00801 µg/mL).
For `O=C(CN1CCN(c2nc(=O)c3cc(C(F)(F)F)cc([N+](=O)[O-])c3s2)CC1)NCc1ccccc1`, in that order: 57.1 µM and 0.0985 µM (≈ 0.05 µg/mL).
The like results for `O=C(CN1CCN(c2nc(=O)c3cc(C(F)(F)F)cc([N+](=O)[O-])c3s2)CC1)Nc1ccccc1` were, in that order, greater than 101 µM and 0.0253 µM (≈ 0.0125 µg/mL).
With `O=c1nc(N2CCN(CC(F)(F)c3ccc(OC(F)(F)F)cc3)CC2)sc2c([N+](=O)[O-])cc(C(F)(F)F)cc12`, the cytotoxic concentration (CC50) at 72 h in data set [1] was greater than 86 µM. Also, in the data set on Mycolicibacterium vaccae, the MIC was 0.0027 µM (≈ 0.00158 µg/mL).
Turning to `O=c1nc(N2CCN(CC(F)(F)F)CC2)sc2c([N+](=O)[O-])cc(C(F)(F)F)cc12`, in data set [1], the CC50 at 72 h was greater than 113 µM. Also, the MIC in the data set on Mycolicibacterium vaccae is 0.007 µM (≈ 0.0031 µg/mL). Besides, the microsomal CLint at 20 µM in data set [2] came out at 13.5 µL/min/mg. Moreover, the half-life at 20 µM in data set [3] came out at 103 min.
For `O=c1nc(N2CCn3cc(-c4ccc(F)cc4)nc3C2)sc2c([N+](=O)[O-])cc(C(F)(F)F)cc12`, in that order: greater than 102 µM, 0.0049 µM (≈ 0.00241 µg/mL), 25.7 µL/min/mg and 54.6 min.
For the molecule `N#Cc1ccccc1N1CCN(c2nc(=O)c3cc(C(F)(F)F)cc([N+](=O)[O-])c3s2)CC1`, the CC50 at 72 h in data set [1] was greater than 108 µM. The MIC in the data set on Mycolicibacterium vaccae came out at 0.0087 µM (≈ 0.00401 µg/mL). Besides, the microsomal CLint at 20 µM in data set [2] turned out to be 14.1 µL/min/mg. Further, the half-life at 20 µM in data set [3] was 99 min.
Consider `CN1CCN(C(=O)C(F)(F)C(F)(F)C(F)(F)C(=O)N2CCN(c3nc(=O)c4cc(C(F)(F)F)cc([N+](=O)[O-])c4s3)CC2)CC1`, for which the CC50 at 72 h in data set [1] is greater than 75.2 µM. Besides, the MIC with Mycolicibacterium vaccae turned out to be 0.0376 µM (≈ 0.025 µg/mL).
For `N#Cc1cccc(N2CCN(c3nc(=O)c4cc(C(F)(F)F)cc([N+](=O)[O-])c4s3)CC2)c1`, in that order: greater than 108 µM and 0.0347 µM (≈ 0.016 µg/mL).
Turning to `CN(CC(F)(F)CO)c1nc(=O)c2cc(C(F)(F)F)cc([N+](=O)[O-])c2s1`, in data set [1], the CC50 at 72 h stood at 109 µM. Further, in the data set on Mycolicibacterium vaccae, the MIC is 0.0626 µM (≈ 0.025 µg/mL).
For `O=C(CN1CCN(c2nc(=O)c3cc(C(F)(F)F)cc([N+](=O)[O-])c3s2)CC1)Nc1ccccn1`, in that order: 44.5 µM and 0.0506 µM (≈ 0.025 µg/mL).
For `O=c1nc(N2CCN(S(=O)(=O)c3ccc(OC(F)(F)F)cc3)CC2)sc2c([N+](=O)[O-])cc(C(F)(F)F)cc12`, in that order: 31.5 µM and 0.0274 µM (≈ 0.016 µg/mL).
The like results for `CN(CCCO)c1nc(=O)c2cc(C(F)(F)F)cc([N+](=O)[O-])c2s1` were, in that order, 103 µM and 0.0716 µM (≈ 0.026 µg/mL).
Consider `CCCCN(Cc1ccccc1)c1nc(=O)c2cc(C(F)(F)F)cc([N+](=O)[O-])c2s1`, for which, in data set [1], the CC50 at 72 h was greater than 114 µM. In addition, the MIC in the data set with Mycolicibacterium vaccae amounted to 0.0286 µM (≈ 0.0125 µg/mL).
The like results for `O=C(CN1CCN(c2nc(=O)c3cc(C(F)(F)F)cc([N+](=O)[O-])c3s2)CC1)N1CCCC1` were, in that order, greater than 106 µM and 0.0658 µM (≈ 0.031 µg/mL).
Consider `O=c1nc(N2CCC(OC3CCN(CC(F)(F)F)CC3)CC2)sc2c([N+](=O)[O-])cc(C(F)(F)F)cc12`, for which the CC50 at 72 h in data set [1] is greater than 93 µM. For the same molecule, the MIC with Mycolicibacterium vaccae came to 0.0115 µM (≈ 0.00622 µg/mL). Besides, the microsomal CLint at 20 µM in data set [2] is 34.5 µL/min/mg. Further, in data set [3], the half-life at 20 µM worked out at 40.5 min.
The like results for `O=c1nc(N2CC[C@H](c3ccccc3)[C@@H](O)C2)sc2c([N+](=O)[O-])cc(C(F)(F)F)cc12` were, in that order, 73.1 µM, 0.0069 µM (≈ 0.00311 µg/mL), 26.7 µL/min/mg and 52.5 min.
For the molecule `CCCCCCN(C)c1nc(=O)c2cc(C(F)(F)F)cc([N+](=O)[O-])c2s1`, the CC50 at 72 h in data set [1] worked out at 75.5 µM. The MIC in the data set on Mycolicibacterium vaccae came out at 0.0321 µM (≈ 0.0125 µg/mL).
As for `O=C(O)Cc1ccccc1Nc1c(Cl)cccc1Cl` [DICLOFENAC], in data set [2], the microsomal CLint at 20 µM stood at 222 µL/min/mg. Moreover, the half-life at 20 µM in data set [3] was found to be 6.3 min.
